Measurements from patent US4476120A, “Thiolic derivatives of erythromycin having therapeutic activity, and pharmaceutical compositions containing them” (Sigma Tau Indistrie Farmaceutiche Riunites, p.A, priority 1982, dated 1984).
Values after ≈ are worked out from the molar mass of the structure shown.

Columns and labels:
[1] = system: E. coli SS 06; assay type: cell-based; details: Brain Heart Infusion, estolate and RV11-RV15 previously hydrolized, unit assumed
[2] = system: Staph. aureus SS 07; test: Experimental infection induced by Staph. aureus SS 07; assay type: in vivo, Swiss white mice; details: Staph. aureus SS 07, mg/kg of erythromycin, survival after 7 days; for ED50 (reliability limits): 10080 min
Summary of the method: (§1)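 Swiss mice of 20 g infected parenterally with lethal amounts of Staph. aureus SS 07 or D. pneumoniae SS 23. Antibiotics were given at infection and again 6 and 24 h later. ED50 was derived from survival at 7 days.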

[3] = system: E. coli SS 07; assay type: cell-based; details: Brain Heart Infusion, estolate and RV11-RV15 previously hydrolized, unit assumed
[4] = system: Strept. faecalis SS 19; assay type: cell-based; details: Brain Heart Infusion, estolate and RV11-RV15 previously hydrolized, unit assumed
[5] = system: Br. melitensis SS 19; assay type: cell-based; details: unit assumed
[6] = system: C. albicans SS 04; assay type: cell-based; details: Brain Heart Infusion, estolate and RV11-RV15 previously hydrolized, unit assumed
[7] = system: S. infantis SS 08; assay type: cell-based; details: Brain Heart Infusion, estolate and RV11-RV15 previously hydrolized, unit assumed
[8] = system: C. diphtheriae SS 19; assay type: cell-based; details: Brain Heart Infusion, estolate and RV11-RV15 previously hydrolized, unit assumed
[9] = system: B. subtilis SS 127; assay type: cell-based; details: Brain Heart Infusion, estolate and RV11-RV15 previously hydrolized, unit assumed
[10] = system: B. cereus ATCC 11778; assay type: cell-based; details: Brain Heart Infusion, estolate and RV11-RV15 previously hydrolized, unit assumed
[11] = system: Citrobacter SS 05; assay type: cell-based; details: Brain Heart Infusion, estolate and RV11-RV15 previously hydrolized, unit assumed
[12] = system: D. pneumoniae SS 23; assay type: cell-based; details: Brain Heart Infusion, estolate and RV11-RV15 previously hydrolized, unit assumed
[13] = Acute toxicity; assay type: in vivo; details: mortality 10 days after treatment, mice
Procedure: The acute toxicity was assessed in Swiss white mice by oral and intravenous route. The LD50 values have been calculated by the methods of Probits, starting from the mortality recorded 10 days after the treatment.

[14] = system: Staph. aureus SS 08; assay type: cell-based; details: Brain Heart Infusion, estolate and RV11-RV15 previously hydrolized, unit assumed
[15] = system: H. tubercolosis SS 03; assay type: cell-based; details: Brain Heart Infusion, estolate and RV11-RV15 previously hydrolized, unit assumed
Text: (§2) In the following table I the MIC/ml values are indicated corresponding to the lowest concentration capable of inducing a complete inhibition of the bacterial development.

[16] = system: Kl. pneumoniae SS 04; assay type: cell-based; details: Brain Heart Infusion, estolate and RV11-RV15 previously hydrolized, unit assumed
Text: as §2

[17] = system: Staph. albus SS 04; assay type: cell-based; details: Brain Heart Infusion, estolate and RV11-RV15 previously hydrolized, unit assumed
[18] = Mucolytic activity: obstruction of the bronchial tract after SO2 inhalation; assay type: in vivo, Sprague Dawley male rats; details: i.m., 250 mg/kg; SO2, 15 days
[19] = Histological examination of bronchi after SO2 inhalation; assay type: in vivo, Sprague Dawley male rats; details: i.m., 250 mg/kg; for histological appearance of non obstructed bronchi: free non obstructed
[20] = system: H. influentiae SS 02; assay type: cell-based; details: Brain Heart Infusion, estolate and RV11-RV15 previously hydrolized, unit assumed
[21] = system: Strept. haemolyticus SS 18; assay type: cell-based; details: Brain Heart Infusion, estolate and RV11-RV15 previously hydrolized, unit assumed
[22] = system: D. pneumoniae SS 23; test: Experimental infection induced by D. pneumoniae SS 23; assay type: in vivo, Swiss white mice; details: D. pneumoniae SS 23, mg/kg of erythromycin, survival after 7 days; for ED50 (reliability limits): 10080 min
Summary of the method: as §1

[23] = system: Staph. aureus SS 10; assay type: cell-based; details: Brain Heart Infusion, estolate and RV11-RV15 previously hydrolized, unit assumed
[24] = system: Pr. mirabilis SS 09; assay type: cell-based; details: Brain Heart Infusion, estolate and RV11-RV15 previously hydrolized, unit assumed
[25] = system: N. gonorreae SS 27; assay type: cell-based; details: Brain Heart Infusion, estolate and RV11-RV15 previously hydrolized, unit assumed
[26] = system: Staph. aureus SS 07; assay type: cell-based; details: Brain Heart Infusion, estolate and RV11-RV15 previously hydrolized, unit assumed
[27] = system: S. heidelberg SS 18; assay type: cell-based; details: Brain Heart Infusion, estolate and RV11-RV15 previously hydrolized, unit assumed
[28] = system: E. cloacae SS 07; assay type: cell-based; details: Brain Heart Infusion, estolate and RV11-RV15 previously hydrolized, unit assumed
[29] = system: Sr. marcescens SS 03; assay type: cell-based; details: Brain Heart Infusion, estolate and RV11-RV15 previously hydrolized, unit assumed
[30] = system: Pr. vulgaris SS 10; assay type: cell-based; details: Brain Heart Infusion, estolate and RV11-RV15 previously hydrolized, unit assumed
[31] = system: Strept. haemolyticus SS 17; assay type: cell-based; details: Brain Heart Infusion, estolate and RV11-RV15 previously hydrolized, unit assumed
[32] = system: Staph. aureus SS 09; assay type: cell-based; details: Brain Heart Infusion, estolate and RV11-RV15 previously hydrolized, unit assumed
[33] = system: Kl. aerogenes SS 71; assay type: cell-based; details: Brain Heart Infusion, estolate and RV11-RV15 previously hydrolized, unit assumed
[34] = system: E. aerogenes SS 011; assay type: cell-based; details: Brain Heart Infusion, estolate and RV11-RV15 previously hydrolized, unit assumed
[35] = system: Cl. tetani SS 17; assay type: cell-based; details: Brain Heart Infusion, estolate and RV11-RV15 previously hydrolized, unit assumed
[36] = system: Br. abortus SS 7; assay type: cell-based; details: Brain Heart Infusion, estolate and RV11-RV15 previously hydrolized, unit assumed
[37] = system: S. lutea ATCC 9341; assay type: cell-based; details: Brain Heart Infusion, estolate and RV11-RV15 previously hydrolized, unit assumed
[38] = system: E. coli SS 04; assay type: cell-based; details: Brain Heart Infusion, estolate and RV11-RV15 previously hydrolized, unit assumed
[39] = system: E. coli SS 05; assay type: cell-based; details: Brain Heart Infusion, estolate and RV11-RV15 previously hydrolized, unit assumed
[40] = system: B. subtilis ATCC 6633; assay type: cell-based; details: Brain Heart Infusion, estolate and RV11-RV15 previously hydrolized, unit assumed
[41] = system: Ps. aeruginosa SS 10; assay type: cell-based; details: Brain Heart Infusion, estolate and RV11-RV15 previously hydrolized, unit assumed
[42] = system: N. meningitidis SS 04; assay type: cell-based; details: Brain Heart Infusion, estolate and RV11-RV15 previously hydrolized, unit assumed

CC[C@H]1OC(=O)[C@H](C)[C@@H](O[C@H]2C[C@@](C)(OC)[C@@H](O)[C@H](C)O2)[C@H](C)[C@@H](O[C@@H]2O[C@H](C)C[C@H](N(C)C)[C@H]2O)[C@](C)(O)C[C@@H](C)C(=O)[C@H](C)[C@@H](O)[C@]1(C)O [RV01, erythromycin alpha-mercaptosuccinate]
MIC [1]: 100 µg/mL (≈ 136 µM)
ED50 ([2]; Staphylococcus aureus, SS07, in Mus musculus, sc, 168 h, s.c., read-out: ED50 (reliability limits)): 0.95 mg/kg
ED50 (reliability limits) ([2]; os): 2.36 (2.68-2.08) mg/kg
MIC [3]: 25 µg/mL (≈ 34.1 µM)
MIC [4]: 0.1 µg/mL (≈ 0.136 µM)
MIC [5]: 3 µg/mL (≈ 4.09 µM)
MIC [6]: > 200 µg/mL
MIC [7]: 100 µg/mL (≈ 136 µM)
MIC [8]: 0.025 µg/mL (≈ 0.0341 µM)
MIC [9]: 0.01 µg/mL (≈ 0.0136 µM)
MIC [10]: 0.4 µg/mL (≈ 0.545 µM)
MIC [11]: > 200 µg/mL
MIC [12]: 0.05 µg/mL (≈ 0.0681 µM)
LD50 (reliability limits) ([13]; i.v., 14400 min): 458.49 (518.06-405.77) mg.kg
LD50 (reliability limits) ([13]; os): > 3000 mg·kg
MIC [14]: 0.025 µg/mL (≈ 0.0341 µM)
MIC [15]: 50 µg/mL (≈ 68.1 µM)
MIC [16]: 100 µg/mL (≈ 136 µM)
MIC [17]: 0.05 µg/mL (≈ 0.0681 µM)
Partial obstruction (% incidence) [18]: 13.33%
Total obstruction, compact plug (% incidence) [18]: 26.66%
Total obstruction, nodular mass (% incidence) [18]: 6.66%
Total obstruction, pimply mass (% incidence) [18]: 13.33%
histological appearance of non obstructed bronchi [19]: practically normal appearance
histological appearance of obstructed bronchial tract [19]: an appearance like that of the control animals
MIC [20]: 1.5 µg/mL (≈ 2.04 µM)
MIC [21]: 1.5 µg/mL (≈ 2.04 µM)
ED50 ([22]; Streptococcus pneumoniae, SS23, in Mus musculus, sc, 168 h, s.c., read-out: ED50 (reliability limits)): 52.7 mg/kg
ED50 (reliability limits) ([22]; os): 108.98 (137.60-86.32) mg/kg
MIC [23]: 0.05 µg/mL (≈ 0.0681 µM)
MIC [24]: > 200 µg/mL
MIC [25]: 0.8 µg/mL (≈ 1.09 µM)
MIC [26]: 0.05 µg/mL (≈ 0.0681 µM)
MIC [27]: 100 µg/mL (≈ 136 µM)
MIC [28]: > 200 µg/mL
MIC [29]: 200 µg/mL (≈ 273 µM)
MIC [30]: > 200 µg/mL
MIC [31]: 3 µg/mL (≈ 4.09 µM)
MIC [32]: 0.1 µg/mL (≈ 0.136 µM)
MIC [33]: 100 µg/mL (≈ 136 µM)
MIC [34]: 50 µg/mL (≈ 68.1 µM)
MIC [35]: 0.2 µg/mL (≈ 0.273 µM)
MIC [36]: 6 µg/mL (≈ 8.18 µM)
MIC [37]: 0.01 µg/mL (≈ 0.0136 µM)
MIC [38]: 50 µg/mL (≈ 68.1 µM)
MIC [39]: 50 µg/mL (≈ 68.1 µM)
MIC [40]: 0.01 µg/mL (≈ 0.0136 µM)
MIC [41]: 200 µg/mL (≈ 273 µM)
MIC [42]: 0.8 µg/mL (≈ 1.09 µM)

CC[C@H]1OC(=O)[C@H](C)[C@@H](O[C@H]2C[C@@](C)(OC)[C@@H](O)[C@H](C)O2)[C@H](C)[C@@H](O[C@@H]2O[C@H](C)C[C@H](N(C)C)[C@H]2O)[C@](C)(O)C[C@@H](C)C(=O)[C@H](C)[C@@H](O)[C@]1(C)O [RV03, erythromycyn-thiazolidin-carboxylate]
MIC [1]: 50 µg/mL (≈ 68.1 µM)
ED50 (reliability limits) ([2]; os): 2.14 (2.42-1.89) mg/kg
ED50 (reliability limits) ([2]; s.c.): 1.00 (1.36-0.73) mg/kg
MIC [3]: 50 µg/mL (≈ 68.1 µM)
MIC [4]: 0.05 µg/mL (≈ 0.0681 µM)
MIC [5]: 6 µg/mL (≈ 8.18 µM)
MIC [6]: 200 µg/mL (≈ 273 µM)
MIC [7]: 200 µg/mL (≈ 273 µM)
MIC [8]: 0.025 µg/mL (≈ 0.0341 µM)
MIC [9]: 0.025 µg/mL (≈ 0.0341 µM)
MIC [10]: 0.08 µg/mL (≈ 0.109 µM)
MIC [11]: > 200 µg/mL
MIC [12]: 0.025 µg/mL (≈ 0.0341 µM)
LD50 (reliability limits) ([13]; i.v., 14400 min): 491.96 (552.31-438.20) mg.kg
LD50 (reliability limits) ([13]; os): > 3000 mg·kg
MIC [14]: 0.025 µg/mL (≈ 0.0341 µM)
MIC [15]: 25 µg/mL (≈ 34.1 µM)
MIC [16]: 100 µg/mL (≈ 136 µM)
MIC [17]: 0.025 µg/mL (≈ 0.0341 µM)
Partial obstruction (% incidence) [18]: 6.66%
Total obstruction, compact plug (% incidence) [18]: 26.66%
Total obstruction, nodular mass (% incidence) [18]: 20%
Total obstruction, pimply mass (% incidence) [18]: 6.66%
histological appearance of non obstructed bronchi [19]: practically normal appearance
histological appearance of obstructed bronchial tract [19]: an appearance like that of the control animals
MIC [20]: 1.5 µg/mL (≈ 2.04 µM)
MIC [21]: 1.5 µg/mL (≈ 2.04 µM)
ED50 (reliability limits) ([22]; os): 119.21 (142.60-99.65) mg/kg
ED50 (reliability limits) ([22]; s.c.): 47.98 (59.13-38.93) mg/kg
MIC [23]: 0.1 µg/mL (≈ 0.136 µM)
MIC [24]: > 200 µg/mL
MIC [25]: 0.8 µg/mL (≈ 1.09 µM)
MIC [26]: 0.025 µg/mL (≈ 0.0341 µM)
MIC [27]: 100 µg/mL (≈ 136 µM)
MIC [28]: > 200 µg/mL
MIC [29]: 100 µg/mL (≈ 136 µM)
MIC [30]: > 200 µg/mL
MIC [31]: 1.5 µg/mL (≈ 2.04 µM)
MIC [32]: 0.05 µg/mL (≈ 0.0681 µM)
MIC [33]: 50 µg/mL (≈ 68.1 µM)
MIC [34]: 50 µg/mL (≈ 68.1 µM)
MIC [35]: 0.4 µg/mL (≈ 0.545 µM)
MIC [36]: 6 µg/mL (≈ 8.18 µM)
MIC [37]: 0.025 µg/mL (≈ 0.0341 µM)
MIC [38]: 100 µg/mL (≈ 136 µM)
MIC [39]: 50 µg/mL (≈ 68.1 µM)
MIC [40]: 0.05 µg/mL (≈ 0.0681 µM)
MIC [41]: 100 µg/mL (≈ 136 µM)
MIC [42]: 1.5 µg/mL (≈ 2.04 µM)
